What all share (assay type): cell-based
For assay [1], the target named is T1, Nav1.7 (Homo sapiens, UniProt Q15858, N1459A).
T1 construct: gene SCN9A
In words: whole-cell patch clamp in transfected HEK293T cells.

Assay [2] addresses T2, Nav1.7 (Homo sapiens, UniProt Q15858, N1459A/S1320A).
T2 construct: gene SCN9A
Described as above.

Assay [3] deals with T3, Nav1.7 (Homo sapiens, UniProt Q15858, S1320A).
T3 construct: gene SCN9A
The description is as above.

The target in assay [4] is T4, Nav1.7 (Homo sapiens, UniProt Q15858).
T4 construct: gene SCN9A; no beta subunit stated for this line
Kind of assay: cryo-EM structure at […] Å; Kd for the inactivated state calculated from patch-clamp (alpha subunit alone).

Assay [5] has as its target T5, Nav1.7 (Homo sapiens, UniProt Q15858, F387A).
T5 construct: gene SCN9A
Kind of assay: whole-cell patch clamp in transfected HEK293T cells.

Assay [6] addresses T6, Nav1.7 (Homo sapiens, UniProt Q15858, V383A).
T6 construct: gene SCN9A
The description is as above.

T4 sequence (Q15858 whole entry): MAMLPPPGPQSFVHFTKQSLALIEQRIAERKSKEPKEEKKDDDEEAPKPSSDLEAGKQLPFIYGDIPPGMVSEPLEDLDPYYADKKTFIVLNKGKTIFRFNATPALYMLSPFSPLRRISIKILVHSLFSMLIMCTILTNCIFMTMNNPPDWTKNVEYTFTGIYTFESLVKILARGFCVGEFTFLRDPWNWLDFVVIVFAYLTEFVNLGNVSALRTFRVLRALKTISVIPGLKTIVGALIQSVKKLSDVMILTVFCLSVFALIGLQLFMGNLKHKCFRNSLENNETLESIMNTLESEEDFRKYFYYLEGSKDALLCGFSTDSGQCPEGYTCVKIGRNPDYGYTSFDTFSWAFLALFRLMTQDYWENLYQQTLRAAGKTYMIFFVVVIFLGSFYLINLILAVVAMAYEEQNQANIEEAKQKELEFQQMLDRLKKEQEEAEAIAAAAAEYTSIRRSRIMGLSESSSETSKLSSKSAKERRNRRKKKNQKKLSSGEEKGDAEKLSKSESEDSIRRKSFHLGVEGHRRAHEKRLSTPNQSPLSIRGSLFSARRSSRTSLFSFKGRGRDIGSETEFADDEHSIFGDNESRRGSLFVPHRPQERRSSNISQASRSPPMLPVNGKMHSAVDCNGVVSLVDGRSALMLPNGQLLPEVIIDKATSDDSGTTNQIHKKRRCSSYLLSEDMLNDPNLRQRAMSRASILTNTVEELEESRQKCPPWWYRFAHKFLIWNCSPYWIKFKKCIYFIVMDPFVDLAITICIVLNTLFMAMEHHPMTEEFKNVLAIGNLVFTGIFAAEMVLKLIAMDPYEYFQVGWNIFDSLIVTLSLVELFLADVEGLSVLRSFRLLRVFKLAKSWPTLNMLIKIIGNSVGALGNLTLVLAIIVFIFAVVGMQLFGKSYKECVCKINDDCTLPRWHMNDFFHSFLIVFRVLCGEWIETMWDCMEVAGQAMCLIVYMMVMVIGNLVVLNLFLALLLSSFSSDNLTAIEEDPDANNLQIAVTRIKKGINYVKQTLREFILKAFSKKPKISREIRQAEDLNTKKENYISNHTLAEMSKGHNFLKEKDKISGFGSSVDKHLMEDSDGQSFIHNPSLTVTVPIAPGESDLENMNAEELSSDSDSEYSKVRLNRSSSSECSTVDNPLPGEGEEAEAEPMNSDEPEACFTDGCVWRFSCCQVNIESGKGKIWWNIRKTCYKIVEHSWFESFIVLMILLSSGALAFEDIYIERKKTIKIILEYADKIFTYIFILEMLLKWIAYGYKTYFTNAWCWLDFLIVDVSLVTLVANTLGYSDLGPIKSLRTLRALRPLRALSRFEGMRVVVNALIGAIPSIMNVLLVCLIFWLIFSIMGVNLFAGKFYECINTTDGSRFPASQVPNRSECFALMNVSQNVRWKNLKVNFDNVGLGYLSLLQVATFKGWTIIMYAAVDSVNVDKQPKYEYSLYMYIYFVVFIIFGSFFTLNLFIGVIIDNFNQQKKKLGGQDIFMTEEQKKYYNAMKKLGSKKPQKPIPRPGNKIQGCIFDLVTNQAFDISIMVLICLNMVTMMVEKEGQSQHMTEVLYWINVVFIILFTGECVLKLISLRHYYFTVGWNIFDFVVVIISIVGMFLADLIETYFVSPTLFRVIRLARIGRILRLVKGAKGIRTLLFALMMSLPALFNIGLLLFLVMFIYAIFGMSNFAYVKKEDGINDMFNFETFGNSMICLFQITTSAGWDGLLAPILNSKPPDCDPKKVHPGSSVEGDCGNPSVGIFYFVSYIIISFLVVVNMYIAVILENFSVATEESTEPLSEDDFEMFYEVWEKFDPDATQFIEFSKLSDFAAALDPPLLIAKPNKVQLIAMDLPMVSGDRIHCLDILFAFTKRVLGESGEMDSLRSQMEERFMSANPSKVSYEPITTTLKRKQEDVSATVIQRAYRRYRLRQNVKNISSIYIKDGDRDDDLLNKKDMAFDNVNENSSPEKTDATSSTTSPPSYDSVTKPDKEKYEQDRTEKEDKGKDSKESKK
T3 sequence (Q15858 whole entry S1320A): as the sequence (Q15858 whole entry) above, with S1320A counted along it
T1 sequence (Q15858 whole entry N1459A): as the sequence (Q15858 whole entry) above, with N1459A counted along it
T6 sequence (Q15858 whole entry V383A): as the sequence (Q15858 whole entry) above, with V383A counted along it
T5 sequence (Q15858 whole entry F387A): as the sequence (Q15858 whole entry) above, with F387A counted along it
T2 sequence (Q15858 whole entry S1320A/N1459A): as the sequence (Q15858 whole entry) above, with S1320A, N1459A counted along it

Turning to `C=C(C)[C@@H]1CCC(C)=C[C@H]1c1c(O)cc(CCCCC)cc1O` [CBD, Cannabidiol], the half-inhibitory concentration (IC50) against Nav1.7 [1] is 2.46 ± 0.28 µM; against Nav1.7 [2] it was 4.28 ± 0.67 µM; against Nav1.7 [3], 3.81 ± 0.42 µM; at Nav1.7 [5], 3.65 ± 0.78 µM; at Nav1.7 [6] it was 3.56 ± 0.58 µM. In addition, the Kd at Nav1.7 [4] is around 0.05 µM.

The values are drawn from PMC10276812, “Cannabidiol inhibits Nav channels through two distinct binding sites” (Nature Communications, 2023).
